Test results taken from paper PMC10045298, “In Vitro Pharmacokinetic Behavior of Antiviral 3-Amidinophenylalanine Derivatives in Rat, Dog and Monkey Hepatocytes” (Biomedicines, 2023).
Entries after “also recorded” stand apart in the source; their conditions may differ. Where two headings read alike, the source gives them in different places.

How the values were obtained:
[1] = Depletion of inhibitors in rat primary hepatocyte suspension (LC-MS/MS), PK prediction; type: in vitro ADME; details: cryopreserved primary hepatocytes in suspension; rat hepatocytes, 10 µM inhibitor, 5 × 10^5 cells/mL, 0-300 min, scaled to liver/bw
Description: (§1) Cryopreserved rat, dog and cynomolgus monkey primary hepatocytes were obtained from Primacyt (Primacyt, Schwerin, Germany). Hepatocytes were thawed using cryopreserved hepatocyte thawing medium (Primacyt, Schwerin, Germany), and cells were centrifuged (10 min, 100× g, 20 °C) to remove supernatants. The viability of hepatocytes was examined by the Trypan blue exclusion method, and it was confirmed that more than 90% of the cells were alive. Cell suspensions were then diluted with serum-free maintenance medium (Primacyt, Schwerin, Germany) after cell counting in Bürker chamber to the appropriate concentration (original concentration of the viable hepatocytes was 10^7 cells/mL).
(§2) Stock solutions of MI-463, MI-472, MI-485 and MI-1900 (10 mM) in dimethyl-sulfoxide were kept at −20 °C. Time courses of the unchanged amount of the inhibitors (in %) after incubation with hepatocytes were measured. Each compound was incubated in cell suspension (at the concentration of 5 × 10^5 cells/mL in 6-well plates) at constant and low-speed shaking at 37 °C in a humid atmosphere containing 5% CO2. […] Cells were incubated with serum-free maintenance medium either without or with each selected MI for 5 h. At various time points (0, 30, 60, 120, 180, and 300 min), the incubation mixtures were sampled (aliquots: 0.15 mL) and terminated by the addition of 0.1 mL ice-cold acetonitrile. The cell debris was separated by centrifugation, and the supernatants were analyzed by LC-MS/MS for quantitation of the remaining amount of the inhibitors.
(§3) For the LC-MS/MS investigations, 120 μL from the incubation mixture samples obtained as described above was removed and mixed with 315 μL chilled acetonitrile and 15 μL triphenylphosphate solution (TPP; 12000 ng/mL in acetonitrile) used as internal standard for the quantitation. After vortex mixing, the samples were centrifuged at 4 °C and 13300 RPM for 10 min. The supernatant was filtered through a PVDF syringe filter of 0.22 μm pore diameter, then transferred to chromatographic vials.
(§4) The LC-MS/MS instrument used for analyzing the MI compounds was a Shimadzu LCMS 8030+ system operated with an electrospray ion source (ESI) in positive multiple reaction monitoring (MRM) mode. A Phenomenex Kinetex C18 EVO 100 × 4.6 mm ID (2.6 µm particle size) column equipped with a 40 × 2 mm C18 guard column was used for the chromatographic separation. Gradient elution was used with eluents “A”: 50 mM ammonium acetate in water (pH 5 set by acetic acid) and “B”: 0.1 v/v% formic acid in acetonitrile. The flow rate was 0.4 mL/min, a chromatographic run took 8 min. The column oven was set to 30 °C, and the autoinjector’s temperature was at 6 °C. The injected volume was 10 µL. Other MS parameters were as follows: interface 4.5 kV; interface temperature 350 °C; desolvation line 300 °C; heat block 400 °C; detector 1.78 kV, nebulizing gas (N2) 3 liters/min, drying gas (N2) 15 liters/min; collision gas (Ar) 230 kPa.
(§5) The intrinsic clearance for hepatocytes (Clint) [mL (min 5 × 10^5 cells) ^−1] was calculated from the decrease in the concentration of MI compounds as follows: Clint = β=ln2/t1/2 [28] For scaling up, the Clint value to obtain Clint per whole liver (g)/bw(kg), the cell concentration in liver, the average liver weight and average body weight parameters were used (Table 1). The value for hepatic clearance (ClH) was calculated as follows: ClH=Clintliver/bw∗fu∗Qplasma/(Clintliver/bw∗fu)+Qplasma where the flow rate of Qplasma = QH* plasma/blood ratio. To calculate ClH, the hepatic flow rate, plasma/blood ratio (Table 1) and fu = 1 values were used. (QH is the hepatic blood flow, while fu is the unbound fraction of the compound.) The hepatic extraction ratio was defined as E = ClH/QH, and the bioavailability (%) was F = (1 − E) * 100 [28, 31, 32, 33].

rat primary hepatocytes = assay: as above; type: in vitro ADME; details: for Extraction Ratio EH / Classification / Predicted Cl CLH: rat; for Classification: 0.3 cut-off of E between low and intermediate extraction; for Predicted Cl CLH: fu = 1
Description: as §1, §2, §3, §4, §5

[2] = Depletion of inhibitors in dog primary hepatocyte suspension (LC-MS/MS), PK prediction; type: in vitro ADME; details: dog, cryopreserved primary hepatocytes in suspension, dog hepatocytes, 10 µM inhibitor, 5 × 10^5 cells/mL, 0-300 min, scaled to liver/bw
Description: as §1, §2, §3, §4, §5

dog primary hepatocytes = assay: as above; type: in vitro ADME; details: for Extraction Ratio EH / Classification / Predicted Cl CLH: dog; for Depletion of parent compound (in words): 10 µM; for Classification: 0.3 cut-off of E between low and intermediate extraction; for Predicted Cl CLH: fu = 1
Description: as §1, §2, §3, §4, §5

[3] = Depletion of inhibitors in cynomolgus monkey primary hepatocyte suspension (LC-MS/MS), PK prediction; type: in vitro ADME; details: cynomolgus monkey, cryopreserved primary hepatocytes in suspension; macaque hepatocytes, 10 µM inhibitor, 5 × 10^5 cells/mL, 0-300 min, scaled to liver/bw
Description: as §1, §2, §3, §4, §5

[4] = tested on: cynomolgus monkey primary hepatocytes; assay: as above; type: in vitro ADME; details: for Depletion of parent compound (in words): cynomolgus monkey hepatocytes, 10 µM, 0-300 min; for Extraction Ratio EH / Classification / Predicted Cl CLH: macaque; for Classification: 0.3 cut-off of E between low and intermediate extraction; for Predicted Cl CLH: fu = 1
Description: as §1, §2, §3, §4, §5

SARS-CoV-2 [5] = tested on: SARS-CoV-2; design: method as in PMID 32703818; details: Calu-3 cells (airway epithelial cells) infected with SARS-CoV-2; cited from earlier work
TMPRSS2 [6] = details: competitive inhibition; previous enzyme kinetic measurements; cited from earlier work
matriptase = details: previous enzyme kinetic measurements, cited from earlier work
human serum albumin = details: cited from earlier work
CYP1A2 = details: cited from earlier work
CYP2C9 = details: cited from earlier work
CYP2C19 = details: cited from earlier work
human CYP3A4 = details: cited from earlier work
cynomolgus monkey CYP1A2 = details: cited from earlier work
H9N2 influenza virus = details: MDCK cells, matriptase-dependent; cited from earlier work
TMPRSS2 [7] = tested on: TMPRSS2; design: method as in PMID 35344983; details: cited from earlier work
SARS-CoV-2 [8] = tested on: SARS-CoV-2; design: method as in PMID 35344983; details: human lung epithelium-derived human airway cells; cited from earlier work
SARS-CoV-2 [9] = tested on: SARS-CoV-2; design: method as in PMID 35344983; details: K18-human ACE2 transgenic mouse model; cited from earlier work
COVID-19 = tested on: COVID-19; design: method as in PMID 35803469; details: repurposed drug candidate; cited from earlier work

Row | SMILES | CLint scaled at 10 µM [1] | Extraction Ratio EH (rat primary hepatocytes) | Classification (rat primary hepatocytes) | Predicted Cl CLH (rat primary hepatocytes) | CLint scaled at 10 µM [2] | Extraction Ratio EH (dog primary hepatocytes) | Depletion of parent compound (in words) (dog primary hepatocytes; dog hepatocytes, 0-300 min) | Classification (dog primary hepatocytes) | Predicted Cl CLH (dog primary hepatocytes) | CLint scaled at 10 µM [3] | Extraction Ratio EH [4] | Classification [4] | Predicted Cl CLH [4] | Binding to human serum albumin (human serum albumin) | Influence on CYP1A2 activity (CYP1A2) | Influence on CYP2C9 activity (CYP2C9) | Influence on CYP2C19 activity (CYP2C19) | Modulation of human CYP3A4 function (human CYP3A4) | Modulation of cynomolgus monkey CYP1A2 (cynomolgus monkey CYP1A2) | further results
1 | COc1ccc(-c2cccc(S(=O)(=O)N[C@@H](Cc3cccc(C(=N)N)c3)C(=O)N3CCN(C(=O)NC4CCCCC4)CC3)c2)c(OC)c1 [MI-1900] | 33.8 mL/min/kg | 0.298 | Low-extraction drug | 16.43 | 10.5 mL/min/kg | 0.212 | significantly depleted even at 30 min | Low-extraction drug | 6.56 | 16.1 mL/min/kg | 0.230 | Low-extraction drug | 10.03 | did not bind to human serum albumin to a great extent | did not influence the activity | did not influence the activity | did not influence the activity | could modulate | could modulate | CLint scaled (dog primary hepatocytes; dog hepatocytes, 10 µM inhibitor, 5 × 10^5 cells/mL, 0-300 min, scaled to liver/bw): 10.5 mL/min/kg; Depletion of parent compound (in words) [4]: depleted at the highest speed; also recorded: rapidly; also recorded: depleted faster; SARS-CoV-2 virus titer (SARS-CoV-2 [5]): could successfully lower viral titers; also recorded: effectively decrease SARS-CoV-2 virus titer; Ki (TMPRSS2 [6]): very low, nanomolar; Ki (matriptase): very low, nanomolar
2 | N=C(N)c1cccc(C[C@H](NS(=O)(=O)c2cccc(-c3ccc(Cl)cc3Cl)c2)C(=O)N2CCC(CCN)CC2)c1.O=C(O)C(F)(F)F.O=C(O)C(F)(F)F [MI-432] |  |  |  |  |  |  |  |  |  |  |  |  |  | did not bind to human serum albumin to a great extent | did not influence the activity | did not influence the activity | did not influence the activity | could modulate | could modulate | SARS-CoV-2 virus titer (SARS-CoV-2 [5]): could successfully lower viral titers; also recorded: effectively decrease SARS-CoV-2 virus titer
3 | COc1ccc(-c2cccc(S(=O)(=O)N[C@@H](Cc3cccc(C(=N)N)c3)C(=O)N3CCC(NC(=O)NC(C)(C)C)CC3)c2)c(OC)c1 [MI-485] | 37.8 mL/min/kg | 0.314 | Intermediate-extraction drug | 17.33 | 22.8 mL/min/kg | 0.321 | significantly depleted even at 30 min | Intermediate-extraction drug | 9.93 | 11.4 mL/min/kg | 0.183 | Low-extraction drug | 7.98 |  |  |  |  |  |  | Inhibition of H9N2 influenza virus replication (H9N2 influenza virus): showed inhibition; Ki (matriptase; read-out: Ki): < 5 nM
4 | COc1ccc(-c2cccc(S(=O)(=O)N[C@@H](Cc3cccc(C(=N)N)c3)C(=O)N3CCC(N)CC3)c2)c(OC)c1 [MI-472] | 35.6 mL/min/kg | 0.305 | Intermediate-extraction drug | 16.85 | 26.7 mL/min/kg | 0.343 | significantly depleted even at 30 min | Intermediate-extraction drug | 10.61 | 12 mL/min/kg | 0.190 | Low-extraction drug | 8.27 |  |  |  |  |  |  | 
5 | CS(=O)(=O)N[C@@H](CCC(N)=O)C(=O)N[C@@H](Cc1ccccc1)C(=O)N[C@@H](CCCN=C(N)N)C(=O)c1nc2ccccc2s1 [N-0385, Ms-Gln-Phe-Arg-kbt] |  |  |  |  |  |  |  |  |  |  |  |  |  |  |  |  |  |  |  | IC50 (TMPRSS2 [7]): […]; Inhibition of SARS-CoV-2 infection (SARS-CoV-2 [8]): effective; Inhibition of SARS-CoV-2 infection (SARS-CoV-2 [9]): effective
6 | COc1ccc(-c2cccc(S(=O)(=O)N[C@@H](Cc3cccc(C(=N)N)c3)C(=O)N3CCC(NC(=O)NC4CCCCC4)CC3)c2)c(OC)c1 [MI-463] | 31.9 mL/min/kg | 0.289 | Low-extraction drug | 15.97 | 19.5 mL/min/kg | 0.299 | slowly decreased from 180 min; also recorded: pronounced stability against biotransformation | Low-extraction drug | 9.25 | 6.58 mL/min/kg | 0.121 | Low-extraction drug | 5.27 | did not bind to human serum albumin to a great extent | did not influence the activity | did not influence the activity | did not influence the activity | could modulate | could modulate | Depletion of parent compound (in words) (rat primary hepatocytes; rat hepatocytes, 10 µM, 0-300 min): elevated depletion rates; Depletion of parent compound (in words) [4]: elevated depletion rates; Ki (TMPRSS2 [6]): very low, nanomolar; Ki (matriptase): very low, nanomolar
7 | CN(C)C(=O)COC(=O)Cc1ccc(OC(=O)c2ccc(NC(=N)N)cc2)cc1.CS(=O)(=O)O [camostate, camostate mesylate] |  |  |  |  |  |  |  |  |  |  |  |  |  |  |  |  |  |  |  | Outcome of clinical testing for COVID-19 (COVID-19): failed during clinical testing
